One data set relates to hFIX. Description: Human Factor IX ELISA after IV injection of encapsulated hFIX mRNA. It counts as in vivo. The settings on record: 0.12 mpk, C57 mice, @ 24 h. How it is done: An sheep anti-human Factor IX antibody (Cat# FIX-EIA-C) from Enzyme Research Laboratories is coated on 384-well white microtiter plates overnight at a concentration of 5 ug/ml, then blocked for assay using KPL blocker (Cat#50-82-00). Then, plasma samples are diluted in a casein-based sample diluent and incubated on the plate with biological controls and a standard curve created from recombinant protein (Cat#HCIX-0040). The plate is then washed to remove unbound material. A biotinylated sheep anti-human Factor IX antibody (Cat# FIX-EIA-D) from Enzyme Research Laboratories is then added to the plate at 0.6 ug/ml to detect human Factor IX protein bound by the capture antibody. The plate is washed again and a streptavidin-conjugated horseradish peroxidase reagent (Cat#21140) diluted 1:1250, is incubated on the plate. A third wash step is performed and chemiluminescent reagents (Cat#1859678 & Cat#18596789) are combined and added to the plate and immediately read by a capable plate reader using all wavelengths and a 50 millisecond integration time. Unknown samples are interpolated off the human recombinant Factor IX standard curve.
In general terms: ELISA stands for enzyme-linked immunosorbent assay.

The test system of data set [1] is plasma Factor VII enzyme activity. Nature of the data set: Factor VII Activity Assay after IV dosing of formulated Factor VII siRNA in mice. The data set is classed as in vivo, mouse. The note with it: 0.03 mpk, CD-1 mice, about 48 hours after injection. How it is done:
Female CD-1 mice were received from Harlan Labs and maintained on standard lab chow and water ad libitum. The animals weighed approximately 25 gr at time of dosing. Formulated Factor VII siRNA was administered as a single dose intravenously via the lateral tail vein. Approximately 48 hours after injection, the mice were euthanized by CO2 inhalation followed by exsanguination through the vena cava.
Plasma collected from injected mice was assayed for Factor VII enzyme activity using the Biophen FVII kit from Hyphen Biomedical (catalog number 221304). An assay standard curve was prepared using pooled plasma aliquots from the vehicle control animals. All samples were diluted to fall within the linear range of the standard curve and Factor VII activity relative to control plasma was reported.
Lipid nanoparticles comprising lipid compounds of formula (I) and the FVII siRNA duplex sequence listed above were tested in the Factor VII Activity Assay. The results of this assay are given in Table 3 4 below as a percent knock down of plasma Factor VII enzyme activity at a dose of 0.3 mg/kg and 0.03 mg/kg.

Data set [2] is described as follows: Percentage of encapsulated RNA and RNA concentration of replicon liposomes (Quant-iT RiboGreen). It counts as physicochemical. The settings on record: for %E (% entrapment) 1st IM / Conc (Concentration of RNA) 1st IM: RSV-F replicon RNA LNP prepared for 1st immunization; for %E (% entrapment) 2nd IM / Conc (Concentration of RNA) 2nd IM: RSV-F replicon RNA LNP prepared for 2nd immunization. How it is done:
RNA was encapsulated in liposomes made essentially by the method of Geall et al. (2012) PNAS vol. 109 (36): 14604-14609, Jeffs et al. (2005) Pharmaceutical Research 22 (3):362-372, and Maurer et al. (2001) Biophysical Journal, 80: 2310-2326 The liposomes were made of 10% DSPC (zwitterionic), 40% cationic lipid, 48% cholesterol and 2% PEG-conjugated DMG (2 kDa PEG). These proportions refer to the % moles in the total liposome.
Briefly, lipids were dissolved in ethanol (2 ml), a RNA replicon was dissolved in buffer (2 ml, 100 mM sodium citrate, pH 6) and these were mixed with 2 ml of buffer followed by 1 hour of equilibration. The mixture was then dialized overnight against 1×PBS. The resulting product contained liposomes, with ˜70-95% encapsulation efficiency. For in vitro and in vivo experiments formulations were diluted to the required RNA concentration with 1×PBS.
The percentage of encapsulated RNA and RNA concentration were determined by Quant-iT RiboGreen RNA reagent kit (Invitrogen), following manufacturer's instructions. The ribosomal RNA standard provided in the kit was used to generate a standard curve. Liposomes were diluted 10× or 100× in 1×TE buffer (from kit) before addition of the dye. Separately, liposomes were diluted 10× or 100× in 1×TE buffer containing 0.5% Triton X before addition of the dye (to disrupt the liposomes and thus to assay total RNA). Thereafter an equal amount of dye was added to each solution and then ˜180 μL of each solution after dye addition was loaded in duplicate into a 96 well tissue culture plate. The fluorescence (Ex 485 nm, Em 528 nm) was read on a microplate reader. All liposome formulations were dosed in vivo based on the encapsulated amount of RNA.
(§1) % entrapment (% E), Concentration of RNA (Conc), particle size measured by DLS, and polydispersity reported by DLS of LNPs prepared with different cationic lipids
(In general: A replicon is a self-replicating genome or part of one, used to study replication in cells.)

Data set [3] in a line: Particle size of the lipid nanoparticle (Z-average, dynamic light scattering, Malvern Zetasizer). The data set is classed as physicochemical. The settings on record: for Size 1st IM / Size 2nd IM: RSV-F replicon RNA LNP, DLS; for Size 1st IM: 1st immunization; for Size 2nd IM: 2nd immunization.
Description: The lipid nanoparticles have a size of about 1 to about 2,500 nm, about 10 to about 1,500 nm, about 20 to about 1,000 nm, in a sub-embodiment about 50 to about 600 nm, in a sub-embodiment about 50 to about 400 nm, in a sub-embodiment about 50 to about 250 nm, and in a sub-embodiment about 50 to about 150 nm. Unless indicated otherwise, all sizes referred to herein are the average sizes (diameters) of the fully formed nanoparticle, as measured by dynamic light scattering on a Malvern Zetasizer. The nanoparticle sample is diluted in phosphate buffered saline (PBS) so that the count rate is approximately 200-400 kcts. The data is presented as a weighted average of the intensity measure.
Unless indicated otherwise, all particle size measurements referred to in Table 3 are the Z-average particle size of the fully formed nanoparticle, as measured by dynamic light scattering on a Malvern Zetasizer. The nanoparticle sample was diluted in phosphate buffered saline (PBS) so that the count rate is approximately 200-400 kcts.
as §1

As to `CCCCC/C=C\C/C=C\CCCCCCCC(=O)OCC(COC(=O)CCCCCCC/C=C\C/C=C\CCCCC)COC(=O)C1(C)CCN(C)C1` (stereo not drawn) [Example 1, (9Z,9′Z,12Z,12′Z)-2-(((1,3-dimethylpyrrolidine-3-carbonyl)oxy)methyl)propane-1,3-diyl bis(octadeca-9,12-dienoate)], in the data set with hFIX, the “Expression of protein following IV injection of encapsulated mRNA: hFIX” value stood at 147.7 ng/mL. Further, the “FVII knock-down (%) following IV injection of encapsulated siRNA” value in data set [1] is 69%/0.03 mpk. Further, the “%E (% entrapment) 1st IM” value in data set [2] is on record as 96.21%. In addition, the “Conc (Concentration of RNA) 1st IM” value in data set [2] came to 10352 ng/mL. Besides, the “%E (% entrapment) 2nd IM” value in data set [2] turned out to be 91.99%. In addition, the “Conc (Concentration of RNA) 2nd IM” value in data set [2] came to 11279 ng/mL. The Size is reported as 119.0 nm in data set [3] (FLuc mRNA); 102.3 nm in data set [3] (FVII siRNA); 95.7 nm in data set [3] (Gluc mRNA); 126.9 nm in data set [3] (hFIX mRNA); 105.1 nm in data set [3] (hLep plasmid); 100.0 nm in data set [3] (hLeptin mRNA). For the same compound, the Size in data set [3] (mEPO mRNA) came to 107.2 nm; in data set [3] (pDNA), 100.7 nm. The “Size 1st IM” value in data set [3] is reported as 139.1 nm. The “Size 2nd IM” value in data set [3] is 133.5 nm.

For `CCCCC/C=C\C/C=C\CCCCCCCC(=O)OCC(COC(=O)CCC(OCCCCCCCC)OCCCCCCCC)COC(=O)OCCCN(CC)CC` (stereo not drawn) [Example 13, (9Z,12Z)-3-((4,4-bis(octyloxy)butanoyl)oxy)-2-((((3-(diethylamino)propoxy)carbonyl)oxy)methyl)propyl octadeca-9,12-dienoate], in the data set with hFIX, the “Expression of protein following IV injection of encapsulated mRNA: hFIX” value came to 292.7 ng/mL. In addition, the “FVII knock-down (%) following IV injection of encapsulated siRNA” value in data set [1] is reported as 97%/0.03 mpk. In addition, the Size in data set [3] (FLuc mRNA) was 121.9 nm; in data set [3] (FVII siRNA), 101.5 nm; in data set [3] (Gluc mRNA) it was 90.8 nm; in data set [3] (hFIX mRNA), 122.4 nm; in data set [3] (hLep plasmid) it was 121.5 nm; in data set [3] (hLeptin mRNA), 127.6 nm. Moreover, the values for the Size in data set [3] (mEPO mRNA) and in data set [3] (pDNA) were 113.7 nm and 95.12 nm, respectively.

Regarding `CCCCC/C=C\C/C=C\CCCCCCCC(=O)OCC(COC(=O)CCC(OCCCCCCCC)OCCCCCCCC)COC(=O)OCC1CCCN(CC)C1` (stereo not drawn) [Example 15, (9Z,12Z)-3-((4,4-bis(octyloxy)butanoyl)oxy)-2-(((((1-ethylpiperidin-3-yl)methoxy)carbonyl)oxy)methyl)propyl octadeca-9,12-dienoate], the “%E (% entrapment) 1st IM” value in data set [2] worked out at 94.26%. In addition, in data set [2], the “Conc (Concentration of RNA) 1st IM” value amounted to 10203 ng/mL. In data set [2], the “%E (% entrapment) 2nd IM” value amounted to 96.64%. Moreover, the “Conc (Concentration of RNA) 2nd IM” value in data set [2] was determined as 10091 ng/mL. In addition, the Size in data set [3] (FLuc mRNA) turned out to be 100.7 nm; in data set [3] (Gluc mRNA), 84.7 nm; in data set [3] (hFIX mRNA), 96.8 nm; in data set [3] (hLep plasmid), 94.5 nm; in data set [3] (hLeptin mRNA) it was 119.8 nm; in data set [3] (mEPO mRNA) it was 90.1 nm. For the same compound, the Size in data set [3] (pDNA) amounted to 86.9 nm. The “Size 1st IM” value in data set [3] was 144.7 nm. Moreover, in data set [3], the “Size 2nd IM” value was determined as 139.4 nm.

These data come from patent publication US10059655B2, “Lipids and lipid compositions for the delivery of active agents” (priority 2013, dated 2018).
